Patent US8592383B2, “Cycloalkyl-fused tetrahydroquinolines as CRTH2 receptor modulators” (Merck Sharp & Dohme Corp., priority 2011, dated 2013)
Where two headings read alike, the source gives them in different places.

Target: T1, hCRTH2 (Homo sapiens, UniProt Q9Y5Y4)
T1 sequence (Q9Y5Y4 1-395): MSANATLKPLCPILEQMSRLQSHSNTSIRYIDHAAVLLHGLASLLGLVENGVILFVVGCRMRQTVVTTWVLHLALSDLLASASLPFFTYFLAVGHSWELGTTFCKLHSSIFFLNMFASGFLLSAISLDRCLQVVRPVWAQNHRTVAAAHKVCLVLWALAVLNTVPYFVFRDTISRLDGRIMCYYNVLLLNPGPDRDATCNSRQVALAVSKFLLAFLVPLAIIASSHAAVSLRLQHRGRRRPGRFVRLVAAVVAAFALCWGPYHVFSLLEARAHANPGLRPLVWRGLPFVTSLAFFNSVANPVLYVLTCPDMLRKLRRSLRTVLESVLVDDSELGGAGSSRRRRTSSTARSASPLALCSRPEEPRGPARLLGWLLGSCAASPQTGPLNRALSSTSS
Design: expressed in transfected cells; host or cells: HEK (human embryonic kidney) cells expressing hCRTH2
Conditions: Radioligand Binding Assay B
Procedure: The filters were then washed with 4 mL of the same buffer and residual radioligand bound to the filter was determined by liquid scintillation counting following equilibration in 25 μl Ultima Gold F™ (Unifilter) (Packard).

[1] = 0.7 nM [3H]PGD2, HEK-hCRTH2 membranes

| Compound | Ki (Table B, rated A-D) | Ki [1] |
| --- | --- | --- |
| COC(=O)CCC(=O)N(c1ccccc1)C1c2ccccc2N(C(=O)c2cccnc2)C2CCCC21 (racemic) [12B, methyl 4-oxo-4-{phenyl[cis, cis-4-(pyridin-3-ylcarbonyl)-2,3,3a,4,9,9a-hexahydro-1H-cyclopenta[b]quinolin-9-yl]amino}butanoate] | 20.1 to 200 nM |  |
| O=C(O)CCC(=O)N(c1ccccc1)C1c2ccccc2N(C(=O)OCc2ccccc2)C2CCCC21 (racemic) [12C, 4-[{cis,cis-4-[(benzyloxy)carbonyl]-2,3,3a,4,9,9a-hexahydro-1H-cyclopenta[b]quinolin-9-yl}(phenyl)amino]-4-oxobutanoic acid] | 5.1 to 20 nM |  |
| O=C(O)CCC(=O)N(c1ccccc1)C1c2ccccc2N(C(=O)c2cccnc2)C2CCCC21 (racemic) [12D, 4-oxo-4-{phenyl[cis,cis-4-(pyridin-3-ylcarbonyl)-2,3,3a,4,9,9a-hexahydro-1H-cyclopenta[b]quinolin-9-yl]amino}butanoic acid] | 5.1 to 20 nM |  |
| O=C(O)CCC(=O)N(c1ccccc1)C1c2ccccc2N(C(=O)c2ccccc2)C2CCCC21 (racemic) [12E, 4-oxo-4-{phenyl[cis,cis-4-(phenylcarbonyl)-2,3,3a,4,9,9a-hexahydro-1H-cyclopenta[b]quinolin-9-yl]amino}butanoic acid] | 5.1 to 20 nM |  |
| CCN(C(=O)CCC(=O)O)C1c2ccccc2N(C(=O)c2ccc(OC(F)(F)F)cc2)C2CCCC12 (racemic) [13C, 4-{ethyl [cis,cis-4-{[4-(trifluoromethoxy)phenyl]carbonyl}-2,3,3a,4,9,9a-hexahydro-1H-cyclopenta[b]quinolin-9-yl]amino}-4-oxobutanoic acid] | 5.1 to 20 nM |  |
| CCN(C(=O)CCC(=O)O)C1c2ccccc2N(C(=O)c2ccccc2)C2CCCC12 (racemic) [13D, 4-{ethyl[cis,cis-4-(phenylcarbonyl)-2,3,3a,4,9,9a-hexahydro-1H-cyclopenta[b]quinolin-9-yl]amino}-4-oxobutanoic acid] | 5.1 to 20 nM |  |
| CCN(C(=O)CCC(=O)O)C1c2ccccc2N(C(=O)c2cccnc2)C2CCCC12 (racemic) [13E, 4-{ethyl[cis,cis-4-(pyridin-3-ylcarbonyl)-2,3,3a,4,9,9a-hexahydro-1H-cyclopenta[b]quinolin-9-yl]amino}-4-oxobutanoic acid] | 20.1 to 200 nM | 123 nM |
| O=C(O)CCC(=O)N(C1CC1)C1c2ccccc2N(C(=O)c2ccc(OC(F)(F)F)cc2)C2CCCC21 (racemic) [14C, 4-{cyclopropyl[cis,cis-4-{[4-(trifluoromethoxy)phenyl]carbon-yl}-2,3,3a,4,9,9a-hexahydro-1H-cyclopenta[b]quinolin-9-yl]amino}-4-oxobutanoic acid] | 5.1 to 20 nM |  |
| Cn1c(C(=O)N2c3ccccc3C(N(C(=O)CCC(=O)O)C3CC3)C3CCCC32)cc2ccccc21 (racemic) [14D, 4-(cyclopropyl{cis,cis-4-[(1-methyl-1H-indol-2-yl)carbonyl]-2,3,3a,4,9,9a-hexahydro-1H-cyclopenta[b]quinolin-9-yl}amino)-4-oxobutanoic acid] | 5.1 to 20 nM |  |
| O=C(O)CCC(=O)N(C1CC1)C1c2ccccc2N(C(=O)c2ccsc2)C2CCCC21 (racemic) [14E, 4-{cyclopropyl[cis,cis-4-(thiophen-3-ylcarbonyl)-2,3,3a,4,9,9a-hexahydro-1H-cyclopenta[b]quinolin-9-yl]amino}-4-oxobutanoic acid] | 5.1 to 20 nM | 9.9 nM |
| O=C(O)CCC(=O)N(C1CC1)C1c2ccccc2N(C(=O)c2ccc(Br)cc2)C2CCCC21 (racemic) [14F, 4-[{cis,cis-4-[(4-bromophenyl)carbonyl]-2,3,3a,4,9,9a-hexahydro-1H-cyclopenta[b]quinolin-9-yl}(cyclopropyl)amino]-4-oxobutanoic acid] | 5.1 to 20 nM |  |
| O=C(O)CCC(=O)N(C1CC1)C1c2ccccc2N(C(=O)C2CC2)C2CCCC21 (racemic) [14G, 4-{cyclopropyl[cis,cis-4-(cyclopropylcarbonyl)-2,3,3a,4,9,9a-hexahydro-1H-cyclopenta[b]quinolin-9-yl]amino}-4-oxobutanoic acid] | 20.1 to 200 nM |  |
| O=C(O)CCC(=O)N(C1CC1)C1c2ccccc2N(C(=O)c2cccc(N3CCOCC3)c2)C2CCCC21 (racemic) [14H, 4-(cyclopropyl{cis,cis-4-[(3-morpholin-4-ylphenyl)carbonyl]-2,3,3a,4,9,9a-hexahydro-1H-cyclopenta[b]quinolin-9-yl}amino)-4-oxobutanoic acid] | 20.1 to 200 nM |  |
| O=C(O)CCC(=O)N(C1CC1)C1c2ccccc2N(C(=O)c2ccc(Cl)cc2)C2CCCC21 (racemic) [14K, 4-[{cis,cis-4-[(4-chlorophenyl)carbonyl]-2,3,3a,4,9,9a-hexahydro-1H-cyclopenta[b]quinolin-9-yl}(cyclopropyl)amino]-4-oxobutanoic acid] | 5.1 to 20 nM | 18.4 nM |
| COc1ccc(C(=O)N2c3ccccc3C(N(C(=O)CCC(=O)O)C3CC3)C3CCCC32)cc1 (racemic) [14L, 4-(cyclopropyl{cis,cis-4-[(4-methoxyphenyl)carbonyl]-2,3,3a,4,9,9a-hexahydro-1H-cyclopenta[b]quinolin-9-yl}amino)-4-oxobutanoic acid] | 20.1 to 200 nM |  |
| COC(=O)CCC(=O)N(C1CC1)C1c2ccccc2N(C(=O)c2cc3ccccc3n2C)C2CCCC21 (racemic) [14N, methyl 4-(cyclopropyl{cis,cis-4-[(1-methyl-1H-indol-2-yl)carbonyl]-2,3,3a,4,9,9a-hexahydro-1H-cyclopenta[b]quinolin-9-yl}amino)-4-oxobutanoate] | 201 to 7500 nM |  |
| COC(=O)CCC(=O)N(C1CC1)C1c2ccccc2N(C(=O)c2ccc(Cl)cc2)C2CCCC21 (racemic) [14P, methyl 4-[{cis,cis-4-[(4-chlorophenyl)carbonyl]-2,3,3a,4,9,9a-hexahydro-1H-cyclopenta[b]quinolin-9-yl}(cyclopropyl)amino]-4-oxobutanoate] | 201 to 7500 nM | 414 nM |
| O=C(O)CCC(=O)N(C1CC1)C1c2ccccc2N(C(=O)c2cccnc2)C2CCCC21 (racemic) [14i, 4-{cyclopropyl[cis,cis-4-(pyridin-3-ylcarbonyl)-2,3,3a,4,9,9a-hexahydro-1H-cyclopenta[b]quinolin-9-yl]amino}-4-oxobutanoic acid] | 20.1 to 200 nM |  |
| COC(=O)CCC(=O)N(C1CC1)C1c2ccccc2N(C(=O)c2ccsc2)C2CCCC21 (racemic) [14o, methyl 4-{cyclopropyl[cis,cis-4-(thiophen-3-ylcarbonyl)-2,3,3a,4,9,9a-hexahydro-1H-cyclopenta[b]quinolin-9-yl]amino}-4-oxobutanoate] | 201 to 7500 nM |  |

Results, then the compound that gave them:

| Ki (Table B, rated A-D) | Ki [1] | Compound |
| --- | --- | --- |
| 20.1 to 200 nM |  | 4-{cyclopropyl[cis,cis-6-fluoro-4- (phenylcarbonyl)-2,3,3a,4,9,9a- hexahydro-1H- cyclopenta[b]quinolin-9-yl]amino}- 4-oxobutanoic acid [16D] |
| 201 to 7500 nM |  | COC(=O)CCC(=O)N(C1CC1)C1c2ccc(F)cc2N(C(=O)c2cccnc2)C2CCCC21 (racemic) [16A, Methyl 4-{cyclopropyl[cis,cis-6-fluoro-4-(pyridin-3-ylcarbonyl)-2,3,3a,4,9,9a-hexahydro-1H-cyclopenta[b]quinolin-9-yl]amino}-4-oxobutanoate] |
| 5.1 to 20 nM |  | COC(=O)CCC(=O)N(C1CC1)C1c2ccc(F)cc2N(C(=O)c2ccc(Oc3ccccc3)cc2)C2CCCC21 (racemic) [16B, Methyl 4-{cyclopropyl[cis,cis-6-fluoro-4-[(4-phenoxyphenyl)carbonyl]-2,3,3a,4,9,9a-hexahydro-1H-cyclopenta[b]quinolin-9-yl}amino)-4-oxobutanoate] |
| 20.1 to 200 nM | 140 nM | COC(=O)CCC(=O)N(C1CC1)C1c2ccc(F)cc2N(C(=O)c2ccccc2)C2CCCC21 (racemic) [16C, Methyl 4-{cyclopropyl[cis,cis-6-fluoro-4-(phenylcarbonyl)-2,3,3a,4,9,9a-hexahydro-1H-cyclopenta[b]quinolin-9-yl]amino}-4-oxobutanoate] |
| 1 to 5 nM |  | O=C(O)CCC(=O)N(C1CC1)C1c2ccc(F)cc2N(C(=O)c2ccc(Oc3ccccc3)cc2)C2CCCC21 (racemic) [16E, 4-{cyclopropyl[cis,cis-6-fluoro-4-[(4-phenoxyphenyl)carbonyl]-2,3,3a,4,9,9a-hexahydro-1H-cyclopenta[b]quinolin-9-yl}amino)-4-oxobutanoic acid] |
| 201 to 7500 nM |  | O=C(O)/C=C/C(=O)N(CC1CC1)C1c2ccccc2N(C(=O)c2ccccc2)C2CCCC12 (racemic) [17H, (2E)-4-[[cis,cis-4-benzoyl-2,3,3a,4,9,9a-hexahydro-1H-cyclopenta[b]quinolin-9-yl](cyclopropylmethyl)amino]-4-oxo-2-butenoic acid] |
| 201 to 7500 nM |  | CN(C(=O)CCCC(=O)O)C1c2ccccc2N(C(=O)c2ccccc2)C2CCCC12 (racemic) [17N] |
| 201 to 7500 nM |  | CN(C(=O)/C=C/C(=O)O)C1c2ccccc2N(C(=O)c2ccccc2)C2CCCC12 (racemic) [17P, (2E)-4-[[cis,cis-4-benzoyl-2,3,3a,4,9,9a-hexahydro-1H-cyclopenta[b]quinolin-9-yl]methylamino]-4-oxo-2-butenoic acid] |
| 201 to 7500 nM |  | CN(C(=O)/C=C/C(=O)O)C1c2ccccc2N(C(=O)c2ccc(OC(F)(F)F)cc2)C2CCCC12 (racemic) [17Q, (2E)-4-[[cis,cis-2,3,3a,4,9,9a-hexahydro-4-[4-(trifluoromethoxy)benzoyl]-1H-cyclopenta[b]quinolin-9-yl]methylamino]-4-oxo-2-butenoic acid] |
